Results as given in ChEMBL document CHEMBL3046383, “Enantioselective Herbicidal Activity of Chiral α-Methylbenzylphenylureas against Cyperaceae and Echinochloa Paddy Weeds” (Biosci Biotechnol Biochem, 1998).
Calls of active or inactive are those of the source. No rule for the calls is given here.

How the values were obtained:
[1] = tested on: Schoenoplectiella juncoides; assay: Herbicidal activity against Schoenoplectiella juncoides var. Hotarui Ohwi assessed as phytotoxic activity ratings (0- no effect to 5-complete killing rating scale) at 100 g/a measured after 3 weeks post compound treatment under green house conditions; type: functional
Cyperus serotinus [2] = assay: Herbicidal activity against Cyperus serotinus assessed as phytotoxic activity ratings (0- no effect to 5-complete killing rating scale) at 100 g/a measured after 3 weeks post compound treatment under green house conditions; type: functional
Cyperus difformis = assay: Herbicidal activity against Cyperus difformis assessed as phytotoxic activity ratings (0- no effect to 5-complete killing rating scale) at 100 g/a measured after 3 weeks post compound treatment under green house conditions; type: functional
Oryza sativa [3] = assay: Phytotoxicity against transplanted Oryza sativa (rice) seedlings assessed as phytotoxic activity ratings (0- no effect to 5-complete killing rating scale) at 100 g/a measured after 3 weeks post compound treatment under green house conditions; type: organism-based; details: in vivo, 504 h
Oryza sativa [4] = assay: Phytotoxicity against directly seeded Oryza sativa (rice) seedlings assessed as phytotoxic activity ratings (0- no effect to 5-complete killing rating scale) at 100 g/a measured after 3 weeks post compound treatment under green house conditions; type: organism-based; details: in vivo, 504 h
Echinochloa oryzicola = assay: Herbicidal activity against Echinochloa oryzicola assessed as phytotoxic activity ratings (0- no effect to 5-complete killing rating scale) at 100 g/a measured after 3 weeks post compound treatment under green house conditions; type: functional
Cyperus serotinus [5] = assay: Herbicidal activity against Cyperus serotinus assessed as phytotoxic activity ratings (0- no effect to 5-complete killing rating scale) at 3.1 to 100 g/a measured after 3 weeks post compound treatment under green house conditions; type: functional

CCc1ccc(NC(=O)N[C@@H](C)c2ccccc2)cc1
Activity [1]: 0% | Activity (Cyperus serotinus [2]): 0% | Activity (Cyperus difformis): 0% | Activity (Oryza sativa [3]): 0% | Activity (Oryza sativa [4]): 0% | Activity (Echinochloa oryzicola): 0%

CCc1ccc(NC(=O)N[C@H](C)c2ccccc2)cc1
Activity [1]: 40% | Activity (Cyperus serotinus [2]): 40% | Activity (Cyperus difformis): 40% | Activity (Oryza sativa [3]): 0% | Activity (Oryza sativa [4]): 0% | Activity (Echinochloa oryzicola): 0%

Cc1cccc(NC(=O)N[C@@H](C)c2ccccc2)c1
Activity [1]: 0% | Activity (Cyperus serotinus [2]): 0% | Activity (Cyperus difformis): 0% | Activity (Oryza sativa [3]): 0% | Activity (Oryza sativa [4]): 10% | Activity (Echinochloa oryzicola): 10%

C[C@@H](NC(=O)Nc1c(F)cccc1F)c1ccccc1
Activity [1]: 40% | Activity (Cyperus serotinus [2]): 40% | Activity (Cyperus difformis): 40% | Activity (Oryza sativa [3]): 0% | Activity (Echinochloa oryzicola): 40%

C[C@H](NC(=O)Nc1ccccc1C(F)(F)F)c1ccccc1
Activity [1]: 0% | Activity (Cyperus serotinus [2]): 0% | Activity (Cyperus difformis): 0% | Activity (Oryza sativa [3]): 0% | Activity (Oryza sativa [4]): 0% | Activity (Echinochloa oryzicola): 10%

COc1cccc(NC(=O)N[C@@H](C)c2ccccc2)c1
Activity [1]: 0% | Activity (Cyperus serotinus [2]): 0% | Activity (Cyperus difformis): 0% | Activity (Oryza sativa [3]): 0% | Activity (Oryza sativa [4]): 0% | Activity (Echinochloa oryzicola): 0%

C[C@@H](NC(=O)Nc1ccccc1F)c1ccccc1
Activity [1]: 10% | Activity (Cyperus serotinus [2]): 40% | Activity (Cyperus difformis): 40% | Activity (Oryza sativa [3]): 0% | Activity (Oryza sativa [4]): 10% | Activity (Echinochloa oryzicola): 10%

C[C@H](NC(=O)Nc1ccccc1C(C)(C)C)c1ccccc1
Activity [1]: 10% | Activity (Cyperus serotinus [2]): 0% | Activity (Cyperus difformis): 40% | Activity (Oryza sativa [3]): 0% | Activity (Oryza sativa [4]): 0% | Activity (Echinochloa oryzicola): 0%

C[C@H](NC(=O)Nc1c(F)cccc1F)c1ccccc1
Activity [1]: 0% | Activity (Cyperus serotinus [2]): 0% | Activity (Cyperus difformis): 0% | Activity (Oryza sativa [3]): 0% | Activity (Oryza sativa [4]): 0% | Activity (Echinochloa oryzicola): 0%

C[C@@H](NC(=O)Nc1ccccc1)c1ccccc1
Activity [1]: 10% | Activity (Cyperus serotinus [2]): 80% | Activity (Cyperus difformis): 40% | Activity (Oryza sativa [3]): 0% | Activity (Oryza sativa [4]): 0% | Activity (Echinochloa oryzicola): 40%

Cc1ccccc1NC(=O)N[C@@H](C)c1ccccc1
Activity [1]: 0% | Activity (Cyperus serotinus [2]): 0% | Activity (Cyperus difformis): 0% | Activity (Oryza sativa [3]): 0% | Activity (Oryza sativa [4]): 0% | Activity (Echinochloa oryzicola): 0%

Cc1cc(F)ccc1NC(=O)N[C@@H](C)c1ccccc1
Activity [1]: 40% | Activity (Cyperus serotinus [2]): 40% | Activity (Cyperus difformis): 10% | Activity (Oryza sativa [3]): 0% | Activity (Oryza sativa [4]): 0% | Activity (Echinochloa oryzicola): 0%

CC(C)c1ccccc1NC(=O)N[C@@H](C)c1ccccc1
Activity [1]: 0% | Activity (Cyperus serotinus [2]): 0% | Activity (Cyperus difformis): 0% | Activity (Oryza sativa [3]): 0% | Activity (Oryza sativa [4]): 0% | Activity (Echinochloa oryzicola): 0%

CCc1ccccc1NC(=O)N[C@@H](C)c1ccccc1
Activity [1]: 10% | Activity (Cyperus serotinus [2]): 0% | Activity (Cyperus difformis): 40% | Activity (Oryza sativa [3]): 0% | Activity (Oryza sativa [4]): 0% | Activity (Echinochloa oryzicola): 0%

CCc1cccc(NC(=O)N[C@@H](C)c2ccccc2)c1
Activity [1]: 40% | Activity (Cyperus serotinus [2]): 0% | Activity (Cyperus difformis): 40% | Activity (Oryza sativa [3]): 0% | Activity (Oryza sativa [4]): 0% | Activity (Echinochloa oryzicola): 0%

Cc1ccc(NC(=O)N[C@@H](C)c2ccccc2)cc1
Activity [1]: 0% | Activity (Cyperus serotinus [2]): 0% | Activity (Cyperus difformis): 0% | Activity (Oryza sativa [3]): 0% | Activity (Oryza sativa [4]): 0% | Activity (Echinochloa oryzicola): 40%

C[C@@H](NC(=O)Nc1cccc(Br)c1)c1ccccc1
Activity [1]: 0% | Activity (Cyperus difformis): 10% | Activity (Oryza sativa [3]): 0% | Activity (Cyperus serotinus [5]): inactive | Activity (Oryza sativa [4]): 0% | Activity (Echinochloa oryzicola): 0%

C[C@@H](NC(=O)Nc1cc(F)cc(F)c1)c1ccccc1
Activity [1]: 0% | Activity (Cyperus difformis): 0% | Activity (Oryza sativa [3]): 0% | Activity (Cyperus serotinus [5]): inactive | Activity (Oryza sativa [4]): 0% | Activity (Echinochloa oryzicola): 0%
